How the values were obtained:
[1] = Localization of radiolabelled Daunorubicin drugs in organs of 3 LL tumor-bearing mice; details: i.v. 100 micrograms Daunorubicin equivalent, 48 or 72 hours after injection
Protocol: The radiolabelled Daunorubicin drugs (14-^14 C) are injected intravenously 14 days after implantation of 10^5 3 LL cells. Either 100 micrograms of free Daunorubicin (5×10^5 cpm), or 100 micrograms of Daunorubicin in macromolecular form (5×10^5 cpm) is injected. Localization is measured after the intravenous injection of various products.
The mice are sacrificed by cervical elongation 48 hours or 72 hours after injection. The organs are removed, dissolved by a tissue solubilizing agent (NCS Amersham) at a rate of 200 mg to 300 mg of organ/ml of solubilizing agent, then counted in a liquid scintillant. […] The results are recapitulated in FIG. 3.

3 LL cells = assay: In vivo antitumor activity on mice implanted with 3 LL cells (tumor growth and survival); parameters: species or system C 57 BL/6 male mice; details: for inhibition of tumor growth relative to the control lot: Daunorubicin 7x10 micrograms, polymer 8x200 microgram equivalents of Daunorubicin (i.v. days 2, 6, 10, i.p. days 14-30), FIG. 4
Protocol: The in vivo antitumor activity of the macromolecular drugs is evaluated on C 57 BL/6 male mice aged a total of about 10 weeks. 10^5 3 LL cells are implanted in each mouse by intramuscular injection of 100 microliters of a cellular suspension of 10^6 cells/ml in the right posterior paw.
One lot of 10 mice, serving as a control, is injected with 7×100 microliters of physiologic serum.
One lot of 10 mice is treated with 7×10 micrograms of free Daunorubicin (dosage limited due to the toxicity of the free drug).
After intramuscular injection of the tumoral cells, the macromolecular prodrug is injected intravenously at days 2, 6 and 10, then intraperitoneally at days 14, 18, 22, 26 and 30.
Two parameters are recorded to evaluate the in vivo antitumoral activity: the inhibition of tumor growth and animal survival.

[2] = comparison value, source not given; cited from earlier work
chymotrypsin = chymotrypsin (Bos taurus, UniProt P00766); assay: Proteolyse in vitro: chymotrypsic hydrolyse, liberated daunorubicin derivative analysed by thin layer chromatography; type: biochemical; details: Tris-HCl buffer 0.05 M, CaCl2 10 mM, pH 8.0; TLC analysis
Protocol: The chymotrypsic hydrolyse is effected in a Tris-HCl buffer 0.05 M, CaCl2 10 mM at pH=8.0.
On analysis, the derivatives of the daunorubicin are liberated after enzymatic hydrolysis, by thin layer chromatography.

trypsin = target: T1, trypsin (Bos taurus, UniProt P00760); assay: Proteolyse in vitro: trypsic hydrolysis, liberated daunorubicin derivative analysed by thin layer chromatography; type: biochemical; details: 0.1M sodium bicarbonate, CaCl2 10 mM, pH 8.7; TLC analysis
T1 construct: gene PRSS1
T1 sequence (P00760 24-246): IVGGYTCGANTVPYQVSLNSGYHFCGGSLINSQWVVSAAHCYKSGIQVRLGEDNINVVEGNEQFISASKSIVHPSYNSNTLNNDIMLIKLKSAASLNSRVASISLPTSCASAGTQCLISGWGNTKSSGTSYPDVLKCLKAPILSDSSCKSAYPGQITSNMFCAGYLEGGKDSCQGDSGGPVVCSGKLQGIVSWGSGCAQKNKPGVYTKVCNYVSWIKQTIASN
Protocol: On analysis, the derivatives of the daunorubicin are liberated after enzymatic hydrolysis, by thin layer chromatography. For example:
Trypsic hydrolysis is carried out in a 0.1M solution of sodium bicarbonate, CaCl2, 10 mM at pH, 8.7.

Compound	spleen mass / atrophy [1]	inhibition of tumor growth relative to the control lot (3 LL cells)	derivative of daunorubicin liberated after chymotrypsic hydrolysis (chymotrypsin)	other results
COc1cccc2c1C(=O)c1c(O)c3c(c(O)c1C2=O)C[C@@](O)(C(C)=O)C[C@@H]3O[C@H]1C[C@H](N)[C@H](O)[C@H](C)O1 [Daunorubicin]	severe atrophy of the spleen	does not influence in a significant manner tumoral growth		radioactivity of the spleen [1]: significant accumulation of the radioactivity
COc1cccc2c1C(=O)c1c(O)c3c(c(O)c1C2=O)C[C@@](O)(C(=O)CO)C[C@@H]3O[C@H]1C[C@H](N)[C@H](O)[C@H](C)O1 [adriamycin]				time to disappear from plasma [2]: 20 min
polycarboxylated linear polymer of 2-N-acryloylamino-2-hydroxymethyl-1,3-propanediol substituted by the -Gly-Gly-L-Tyr-Daunorubicin sequence [Example 1]			frees the daunorubicin	
polycarboxylated linear polymer of 2-N-acryloylamino-2-hydroxymethyl-1,3-propanediol substituted by the -Gly-Gly-L-Tyr-L-Leu-Daunorubicin sequence [Example 2]	mass comparable to that of the healthy animals	significant inhibition of tumor growth	liberates leucyl-daunorubicin	T/C (survival of the animals treated relative to the control animals) (3 LL cells; 8x200 microgram equivalents of Daunorubicin, FIG. 5): 145
polycarboxylated linear polymer of 2-N-acryloylamino-2-hydroxymethyl-1,3-propanediol substituted by the Gly-L-Pro-L-Arg-L-Leu-Daunorubicin sequence [Example 6]				derivative of daunorubicin liberated after trypsic hydrolysis (trypsin): freeing leucyl-daunorubicin
polycarboxylated linear polymer of 2-N-acryloylamino-2-hydroxymethyl-1,3-propanediol substituted by the Gly-L-Phe-L-Ala-L-Leu-Daunorubicin sequence [Example 3]			frees alaninyl-leucyl-daunorubicin	
